Results reported in ChEMBL document CHEMBL1201862, “PubChem BioAssay data set” (2004).
The source made the active and inactive calls.

What was measured:
[1] = target: T1, High affinity choline transporter 1 (Homo sapiens, UniProt Q9GZV3); assay: CHT inhibitors, dose response, cell-based, 5-point CRC, membrane potential dye (AID 504840); assay type: functional
T1 sequence (Q9GZV3 whole entry): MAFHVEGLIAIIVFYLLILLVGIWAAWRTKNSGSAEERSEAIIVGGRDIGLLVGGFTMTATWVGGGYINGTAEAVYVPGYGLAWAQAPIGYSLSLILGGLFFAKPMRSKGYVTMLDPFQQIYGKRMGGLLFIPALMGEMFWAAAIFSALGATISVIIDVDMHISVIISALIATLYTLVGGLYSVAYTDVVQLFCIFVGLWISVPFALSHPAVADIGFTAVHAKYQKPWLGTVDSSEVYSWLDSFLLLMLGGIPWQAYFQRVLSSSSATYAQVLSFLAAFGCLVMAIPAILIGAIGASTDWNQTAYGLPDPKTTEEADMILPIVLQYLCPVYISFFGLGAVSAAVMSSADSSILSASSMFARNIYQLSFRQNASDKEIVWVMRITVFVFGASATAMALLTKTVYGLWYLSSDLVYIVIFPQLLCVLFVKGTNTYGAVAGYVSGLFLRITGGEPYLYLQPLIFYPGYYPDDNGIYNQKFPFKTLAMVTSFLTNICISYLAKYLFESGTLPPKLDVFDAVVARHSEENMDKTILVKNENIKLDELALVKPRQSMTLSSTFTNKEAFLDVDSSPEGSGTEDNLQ

Protein Wnt-3a = Protein Wnt-3a (Mus musculus, UniProt P27467); assay: Wnt3a-driven reporter signaling inhibition, dose response, selectivity assay for Gli-SUFU antagonist project, Wnt-LIGHT cells, luminescence (AID 651570); assay type: functional; details: read-out: IC50_Mean;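 further: Wnt-LIGHT reporter cells stimulated with conditioned medium from Wnt3a-producing cells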
Protein Wnt-3a, sequence (P27467 whole entry): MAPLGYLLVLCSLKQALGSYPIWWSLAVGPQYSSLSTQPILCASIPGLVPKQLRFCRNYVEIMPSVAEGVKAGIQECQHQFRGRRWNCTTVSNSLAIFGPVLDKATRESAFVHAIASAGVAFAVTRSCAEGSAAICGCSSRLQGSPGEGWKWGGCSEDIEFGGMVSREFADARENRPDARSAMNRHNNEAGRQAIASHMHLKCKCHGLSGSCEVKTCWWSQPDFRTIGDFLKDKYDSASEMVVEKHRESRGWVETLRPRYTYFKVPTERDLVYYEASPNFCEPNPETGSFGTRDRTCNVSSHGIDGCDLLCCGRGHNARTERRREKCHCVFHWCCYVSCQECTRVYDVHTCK

[2] = control 3'UTR Renilla luciferase suppression, dose response, counter-screen for Shn3 inhibitor project, cell-based, Clone20-Shn3RL, cherry-picked (AID 624133); assay type: functional
BJ [3] = assay: cytotoxicity toward BJ-TERT-LT-ST fibroblasts, dose response, cell-based, RAS-independent, luminescence (AID 1935); assay type: functional; details: Homo sapiens;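 further: BJ fibroblasts immortalized with TERT plus LT and ST oncogenes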
cells [4] = assay type: functional, cell-based
cells [5] = assay type: functional, cell-based; remark: listed apart in the source
[6] = Luminescence Cell-Based Dose Confirmation HTS to Identify Activators of 5'UTR Stem-Loop Driven Alpha-Synuclein mRNA Translation in H4 Neuroglioblastoma Cells. [Related pubchem assays: 1829 (Project Summary), 1814 (Primary HTS)]; assay type: functional
[7] = Luminescence Cell-Based Dose Response HTS to Identify Activators of Luciferase Translation or Activity in H4 […] Cells. [Related pubchem assays: 1829 (Project Summary), 1814 (Primary HTS)]; assay type: functional
[8] = target: T2, Microphthalmia-associated transcription factor (Homo sapiens, UniProt O75030); assay: TRPM1 promoter luciferase signal decrease, dose response, MITF inhibitor project, cell-based, SK-MEL-5, cherry-picked, set 3 (AID 493073); assay type: functional
T2 sequence (O75030 whole entry): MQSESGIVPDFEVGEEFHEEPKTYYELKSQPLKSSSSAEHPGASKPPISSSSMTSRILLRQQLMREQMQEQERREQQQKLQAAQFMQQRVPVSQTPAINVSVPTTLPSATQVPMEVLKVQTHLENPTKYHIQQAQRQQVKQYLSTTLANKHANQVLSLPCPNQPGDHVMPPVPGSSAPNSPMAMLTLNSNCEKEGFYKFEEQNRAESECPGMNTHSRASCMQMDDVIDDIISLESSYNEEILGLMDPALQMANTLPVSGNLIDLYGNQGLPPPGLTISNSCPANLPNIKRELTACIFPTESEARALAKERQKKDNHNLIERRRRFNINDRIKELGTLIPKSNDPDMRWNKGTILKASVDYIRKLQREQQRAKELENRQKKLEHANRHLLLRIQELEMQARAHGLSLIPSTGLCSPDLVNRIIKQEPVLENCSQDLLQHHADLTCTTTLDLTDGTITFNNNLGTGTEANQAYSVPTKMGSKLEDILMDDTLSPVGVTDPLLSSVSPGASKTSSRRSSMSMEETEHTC

BJ [9] = assay: cells; assay type: functional, cell-based; details: Homo sapiens
[10] = cytotoxicity toward DRD oncogenic fibroblasts, dose response, cell-based, non-viral oncogenic, luminescence (AID 1934); assay type: functional; details: Homo sapiens
[11] = HepG2 cell cytotoxicity, dose response, cytotoxicity control for Shn3 inhibitor project, CellTiter-Glo, cherry-picked (AID 624134); assay type: functional, cell-based
H4 = assay: Luminescence Cell-Based Dose Response HTS to Identify Activators of 5'UTR Stem-Loop Driven Prion Protein mRNA Translation in H4 Neuroglioblastoma Cells. [Related pubchem assays: 1829 (Project Summary), 1814 (Primary HTS)]; assay type: functional; details: Homo sapiens
[12] = Shn3 3'UTR reporter inhibitors, dose response, cell-based, Clone20 osteoblasts, firefly luciferase, cherry-picked (AID 624132); assay type: functional;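 further: firefly luciferase luminescence from reporter carrying the Shn3 3'UTR in osteoblasts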
BJ [13] = assay: cytotoxicity toward BJ-TERT fibroblasts, dose response, cell-based, RAS-independent, luminescence (AID 1933); assay type: functional; details: Homo sapiens
Protein skinhead-1 = target: T3, Protein skinhead-1 (Caenorhabditis elegans, UniProt P34707); assay type: functional
T3 sequence (P34707 whole entry): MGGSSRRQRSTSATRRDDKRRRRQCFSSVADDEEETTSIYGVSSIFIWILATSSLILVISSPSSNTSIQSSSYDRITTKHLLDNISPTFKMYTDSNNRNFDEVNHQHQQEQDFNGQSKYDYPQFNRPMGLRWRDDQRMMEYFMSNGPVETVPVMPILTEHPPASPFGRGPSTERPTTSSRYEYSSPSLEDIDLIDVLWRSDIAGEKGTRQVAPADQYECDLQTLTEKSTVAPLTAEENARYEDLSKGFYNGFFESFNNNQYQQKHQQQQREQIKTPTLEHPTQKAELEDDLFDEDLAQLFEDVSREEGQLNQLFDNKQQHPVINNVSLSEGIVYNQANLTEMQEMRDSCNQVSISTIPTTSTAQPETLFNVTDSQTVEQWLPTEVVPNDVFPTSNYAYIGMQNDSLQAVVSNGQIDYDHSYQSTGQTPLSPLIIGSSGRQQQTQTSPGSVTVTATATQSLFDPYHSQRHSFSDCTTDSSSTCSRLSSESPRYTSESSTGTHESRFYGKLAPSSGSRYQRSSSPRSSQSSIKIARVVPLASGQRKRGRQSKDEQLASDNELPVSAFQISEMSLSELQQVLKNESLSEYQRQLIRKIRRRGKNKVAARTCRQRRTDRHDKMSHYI

[14] = HeLa cell cytotoxicity, dose response, cytotoxicity control for MgcRacGAP inhibitor project (AID 624300); assay type: functional
[15] = target: T4, Rac GTPase-activating protein 1 (Homo sapiens, UniProt Q9H0H5); assay: MgcRacGAP GTPase-activating activity inhibitors, confirmation, biochemical, ADP Hunter fluorescence, primary and confirmatory (AID 624330); assay type: functional
T4 sequence (Q9H0H5 whole entry): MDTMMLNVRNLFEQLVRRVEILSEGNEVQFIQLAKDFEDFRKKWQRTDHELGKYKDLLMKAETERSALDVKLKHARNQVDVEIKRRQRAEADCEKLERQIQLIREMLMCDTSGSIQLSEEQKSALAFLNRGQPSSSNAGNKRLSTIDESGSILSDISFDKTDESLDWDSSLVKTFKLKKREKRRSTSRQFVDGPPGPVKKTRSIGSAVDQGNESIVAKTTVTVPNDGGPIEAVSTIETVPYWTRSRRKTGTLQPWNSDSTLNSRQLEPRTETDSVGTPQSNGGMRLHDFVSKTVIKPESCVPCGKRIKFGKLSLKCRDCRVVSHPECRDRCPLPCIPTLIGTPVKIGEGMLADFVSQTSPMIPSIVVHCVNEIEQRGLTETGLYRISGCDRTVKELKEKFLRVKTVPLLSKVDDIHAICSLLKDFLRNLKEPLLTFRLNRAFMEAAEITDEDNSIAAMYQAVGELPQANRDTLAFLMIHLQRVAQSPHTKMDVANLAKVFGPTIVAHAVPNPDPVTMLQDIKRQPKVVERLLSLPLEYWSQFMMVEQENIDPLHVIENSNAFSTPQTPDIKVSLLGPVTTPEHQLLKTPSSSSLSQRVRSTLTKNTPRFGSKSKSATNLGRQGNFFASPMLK

HEK293 = assay: inhibitors of LMP1-driven NF-kB reporter, dose response, cell-based, HEK293, luciferase, cherry-pick (AID 588343); assay type: functional; details: Homo sapiens
Vero [16] = assay: cells; assay type: functional, cell-based; details: Chlorocebus sabaeus
Vero [17] = assay: cells; assay type: functional; details: Chlorocebus sabaeus
[18] = Counterscreen for activators of the function of SWI/SNF related, matrix associated, actin dependent regulator of chromatin, subfamily a, member 2 (SMARCA2, BRM): Luminescence-based cell-based high throughput dose response assay to identify non-selective compounds using the VP16 reporter assay.; assay type: functional
[19] = target: SWI/SNF-related matrix-associated actin-dependent regulator of chromatin subfamily A member 2 (Homo sapiens, UniProt P51531); assay: Luminescence-based cell-based high throughput dose response assay to identify activators of the function of SWI/SNF related, matrix associated, actin dependent regulator of chromatin, subfamily a, member 2 (SMARCA2, BRM).; assay type: functional
SWI/SNF-related matrix-associated actin-dependent regulator of chromatin subfamily A member 2, sequence (P51531 whole entry): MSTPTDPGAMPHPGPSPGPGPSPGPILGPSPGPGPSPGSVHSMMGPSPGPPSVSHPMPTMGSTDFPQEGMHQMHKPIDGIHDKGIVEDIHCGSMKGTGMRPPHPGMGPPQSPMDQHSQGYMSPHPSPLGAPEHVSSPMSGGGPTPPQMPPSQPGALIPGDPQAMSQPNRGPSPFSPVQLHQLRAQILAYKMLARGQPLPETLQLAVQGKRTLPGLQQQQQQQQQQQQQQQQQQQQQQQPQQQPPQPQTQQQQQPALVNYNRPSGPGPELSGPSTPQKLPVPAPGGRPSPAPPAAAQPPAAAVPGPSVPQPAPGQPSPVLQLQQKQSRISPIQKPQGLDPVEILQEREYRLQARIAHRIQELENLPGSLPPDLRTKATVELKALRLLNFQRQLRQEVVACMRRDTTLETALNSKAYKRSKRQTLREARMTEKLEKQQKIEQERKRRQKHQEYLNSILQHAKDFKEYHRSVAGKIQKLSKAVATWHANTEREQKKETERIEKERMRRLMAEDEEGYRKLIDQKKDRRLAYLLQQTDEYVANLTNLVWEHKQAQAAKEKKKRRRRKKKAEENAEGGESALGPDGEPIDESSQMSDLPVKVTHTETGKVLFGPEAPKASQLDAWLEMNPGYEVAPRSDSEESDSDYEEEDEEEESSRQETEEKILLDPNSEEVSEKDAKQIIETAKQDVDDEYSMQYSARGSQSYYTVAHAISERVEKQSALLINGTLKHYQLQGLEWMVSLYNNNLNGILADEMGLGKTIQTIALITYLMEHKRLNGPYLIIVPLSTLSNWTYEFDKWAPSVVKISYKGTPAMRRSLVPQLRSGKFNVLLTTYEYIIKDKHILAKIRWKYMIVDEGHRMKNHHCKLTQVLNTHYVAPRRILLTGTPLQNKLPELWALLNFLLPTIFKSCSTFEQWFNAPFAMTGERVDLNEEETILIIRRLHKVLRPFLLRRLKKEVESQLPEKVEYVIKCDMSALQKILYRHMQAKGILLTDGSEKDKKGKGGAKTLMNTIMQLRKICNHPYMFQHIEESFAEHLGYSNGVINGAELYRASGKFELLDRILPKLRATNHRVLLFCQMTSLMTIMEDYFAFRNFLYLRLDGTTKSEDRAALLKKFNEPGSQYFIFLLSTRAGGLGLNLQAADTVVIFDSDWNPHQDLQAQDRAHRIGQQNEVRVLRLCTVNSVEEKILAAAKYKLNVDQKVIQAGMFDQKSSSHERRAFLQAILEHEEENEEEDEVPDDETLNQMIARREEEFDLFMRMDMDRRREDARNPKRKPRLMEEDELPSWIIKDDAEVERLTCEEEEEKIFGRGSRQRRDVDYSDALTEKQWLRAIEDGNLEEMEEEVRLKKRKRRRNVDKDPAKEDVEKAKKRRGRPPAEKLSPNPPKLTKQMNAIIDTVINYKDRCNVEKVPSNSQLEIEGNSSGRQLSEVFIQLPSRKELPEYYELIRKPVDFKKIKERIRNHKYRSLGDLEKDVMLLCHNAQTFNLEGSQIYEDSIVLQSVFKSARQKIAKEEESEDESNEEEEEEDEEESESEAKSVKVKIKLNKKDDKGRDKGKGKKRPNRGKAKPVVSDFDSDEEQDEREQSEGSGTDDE

cells [20] = assay type: functional
[21] = C. albicans growth with fluconazole, confirmation, fluorescence, retest (AID 2467); assay type: functional, cell-based
[22] = NIH-3T3 fibroblast cytotoxicity, dose response, cytotoxicity control, cell-based, fluorescence, Alamar Blue, secondary assay (AID 2327); assay type: functional;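 further: NIH-3T3 mouse fibroblasts cultured with fluconazole at 8 µg/mL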
[23] = HEp-2 cell cytotoxicity, dose response, cytotoxicity control for RSV inhibitor project, HTS (AID 2410); assay type: functional; details: human respiratory syncytial virus
cells [24] = assay: cells
[25] = target: T5, Low molecular weight phosphotyrosine protein phosphatase (Homo sapiens, UniProt P24666); assay type: functional; details: read-out: IC50_Mean
T5 sequence (P24666 whole entry): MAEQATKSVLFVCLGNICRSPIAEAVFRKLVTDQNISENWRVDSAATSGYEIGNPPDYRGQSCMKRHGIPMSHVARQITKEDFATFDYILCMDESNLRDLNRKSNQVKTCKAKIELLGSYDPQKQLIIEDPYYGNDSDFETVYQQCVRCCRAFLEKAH

[26] = target: T5, Low molecular weight phosphotyrosine protein phosphatase; assay type: functional; details: read-out: IC50_Mean; remark: listed apart in the source
[27] = Fluorescence-based cell-based high throughput dose response assay for inhibitors of the interaction of nucleotide-binding oligomerization domain containing 2 (NOD2) and the receptor-interacting serine-threonine kinase 2 (RIPK2).; assay type: functional; details: Homo sapiens
[28] = target: Heat shock protein HSP 90-alpha (Homo sapiens, UniProt P07900); assay type: functional, organism-based
[29] = target: Neurotensin receptor type 1 (Homo sapiens, UniProt P30989); assay type: functional;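 further: Image-based confirmatory dose-response assay measuring agonist activity at NTR1; NTR1-expressing U2OS osteosarcoma cells imaged for beta-arrestin GFP spot formation; agonist potency where compounds increase beta-arrestin recruitment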
Neurotensin receptor type 1, sequence (P30989 whole entry): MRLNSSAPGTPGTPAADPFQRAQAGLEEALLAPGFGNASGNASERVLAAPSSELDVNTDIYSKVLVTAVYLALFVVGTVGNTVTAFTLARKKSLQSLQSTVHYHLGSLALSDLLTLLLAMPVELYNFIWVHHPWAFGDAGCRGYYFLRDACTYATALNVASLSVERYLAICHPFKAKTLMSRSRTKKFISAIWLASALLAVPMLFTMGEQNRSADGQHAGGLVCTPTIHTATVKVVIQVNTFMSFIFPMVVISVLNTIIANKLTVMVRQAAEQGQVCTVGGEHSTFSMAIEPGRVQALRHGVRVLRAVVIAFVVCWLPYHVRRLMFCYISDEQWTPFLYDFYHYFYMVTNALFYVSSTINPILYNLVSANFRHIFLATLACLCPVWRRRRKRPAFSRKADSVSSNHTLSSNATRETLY

INS1 = assay: beta cell apoptosis inhibitors, cytokine rescue, dose response, luminescence, retest (AID 449756); assay type: functional, cell-based; details: Rattus norvegicus;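 further: cell death triggered by IL-1 beta plus TNF-alpha plus IFN-gamma mixture; protective hits raise ATP signal compared with cytokine alone wells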

## Cc1ccc(C(=O)C[n+]2cc(Br)cc(Br)c2)cc1
[1]
  IC50: 11.4 µM (active)

## CC1Sc2n(c3ccccc3[n+]2C)N=C1c1ccccc1 (stereo not given)
Protein Wnt-3a
  IC50: 3.6 µM (active)

## COc1cc(/C=C/C(=O)c2ccc3c(c2)OCCO3)cc(Br)c1OCC(=O)N(C)C
[2]
  AC50: 8.52 µM (active)
BJ [3]
  EC50: 5.55 µM (inconclusive)
Cells [4]
  EC50: > 350 µM (not active)
Cells [5]
  EC50: > 350 µM (not active)
[6]
  EC50: 5.83 µM (active)
[7]
  EC50: 14.4 µM (active)
[8]
  AC50: 6.17 µM (active)
BJ [9]
  EC50: 3.4 µM (inconclusive)
[10]
  EC50: 5.43 µM (inconclusive)
[11]
  AC50: 14.2 µM (active)
H4
  EC50: > 120 µM (not active)
[12]
  AC50: 2.63 µM (active)
BJ [13]
  EC50: 4.75 µM (active)

## CN1/C(=C\C(=O)COC(=O)CNC(=O)c2ccc3ccccc3c2)C(C)(C)c2ccccc21
Protein skinhead-1
  IC50: > 100 µM (inactive)
Protein Wnt-3a
  IC50: 50 µM (inactive)

## O=C(NNC(=S)Nc1ccc(Cl)cc1)c1ccccc1OC(F)F
[1]
  IC50: 13.8 µM (active)

## Cc1cc(C)c(OCCCCNCc2ccccc2)c(Cl)c1
[14]
  CC50: 69.7 µM (active)
[15]
  IC50: 91.9 µM (active)

## CC1CC(C)C(=O)C(C(CC2CC(=O)NC(=O)C2)OC(=O)CC(=O)c2ccccc2)C1 (stereo not given)
HEK293
  AC50: 42.3 µM (active)
Vero [16]
  IC50: > 25 µM (active)
Vero [17]
  CC50: 9.24 µM (active)

## COc1ccccc1/C=C/C(=O)OCC(=O)Nc1ccc(Cl)cn1
[18]
  EC50: > 91.1 µM (inactive)
[19]
  EC50: > 91.1 µM (inactive)

## O=[N+]([O-])c1ccc(Nc2ccccc2)c2nonc12
Cells [20]
  IC50: 7.68 µM (active)
[21]
  EC50: < 0.03 µM (active)
Protein skinhead-1
  IC50: 41.5 µM (active)
[1]
  IC50: 11.8 µM (active)
[22]
  EC50: > 150 µM (inconclusive)

## Cc1cccc(C(=O)Nc2ccccc2SCC2CSc3nc4ccccc4c(=O)n32)c1 (stereo not given)
[23]
  CC50: 43 µM (active)
Cells [24]
  IC50: 19.9 µM (active)
Vero [16]
  IC50: > 25 µM (active)

## O=C(CCCN1C(=O)/C(=C\c2ccco2)SC1=S)Nc1ccc2ccccc2c1
Vero [16]
  IC50: 8.01 µM (active)

## Cc1c(-c2ccccc2)c(-c2ccc(OCCN(C)C)cc2)n2ccccc12
[25]
  IC50: 31.3 µM (inactive)
[26]
  IC50: 4.82 µM (active)

## Cc1ccc(NC(=O)NCc2ccc3[nH]c(C)cc3c2)cc1
Vero [16]
  IC50: > 25 µM (active)

## CNc1nc(NC)c2c[nH]nc2n1
[25]
  IC50: 33 µM (inactive)
[26]
  IC50: 9.16 µM (active)

## COc1ccc(C(C[N+](=O)[O-])n2nc(C)cc2C)cc1 (stereo not given)
[27]
  IC50: 1.63 µM (active)
[28]
  AC50: 1.94 µM (active)
[29]
  EC50: 10.1 µM (active)

## COc1ccc(NS(=O)(=O)c2ccc(N3CCCCC3)c(N)c2)cc1
INS1
  AC50: 3.22 µM (active)
[2]
  AC50: 1.51 µM (active)
Protein Wnt-3a
  IC50: 0.102 µM (active)
[11]
  AC50: 4.01 µM (active)
[12]
  AC50: 0.824 µM (active)

## O=C(NCCN1C(=O)S/C(=C\c2ccc(Cl)c([N+](=O)[O-])c2)C1=O)C1=COCCO1
[27]
  IC50: 1.62 µM (active)

## O=C(CNCc1c(F)cccc1F)N1CCC2(CC1)OCCO2
[18]
  EC50: > 91.3 µM (inactive)
[19]
  EC50: > 91.3 µM (inactive)
